Literature values as cited in paper PMC6819114, “Peptide-conjugated oligonucleotides evoke long-lasting myotonic dystrophy correction in patient-derived cells and mice” (The Journal of Clinical Investigation, 2019).

Text: Among strategies to improve delivery of ASOs in DM1 skeletal muscles, cell-penetrating peptide conjugates offer an attractive avenue ([22]–[24]). Indeed, systemic administration of advanced Pip6a peptides conjugated with splice-switch oligonucleotides has shown promising results in DMD mice by restoring a truncated but functional dystrophin ([25]). Pip6a is a cell-penetrating peptide composed of a hydrophobic core region flanked on each side by arginine-rich domains containing β-alanine and aminohexanoyl spacers. This peptide sequence has the ability to deliver associated cargoes across the pl ...

## Ac-(RXRRBRRXRYQF LIRXRBRXRB)-CO OH [Pip6a, arginine-rich cell-penetrating peptide: hydrophobic core flanked by arginine-rich domains containing β-alanine and aminohexanoyl spacers]
  stability to serum proteolysis: stable
